Measured values published in the supplement of paper PMC10627819.

What was measured:
S. aureus Newman [1] = test: fitness (endpoint OD595 vs no drug) (fraction); higher = more growth
Summary of the method: (§1)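 At 37 °C, bacteria in TSB, LB Lennox or CY were grown in 384-well plates from a starting OD595 of 0.01. OD595 was measured every 30 min for 14 h, with the first reading used as background. Fitness is the optical density at the switch to stationary phase as a fraction of the robust mean of no-drug control wells, capped at 1.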

B. subtilis 168 [2] = test: as above
Summary of the method: as §1

S. aureus DSM 20231 [3] = test: as above
Summary of the method: as §1

S. pneumoniae D39V [4] = test: as above
Summary of the method: as §1

S. aureus Newman [5] = test: Bliss interaction score (quartile over a dose matrix) (fitness difference); higher = more antagonism (negative = synergy)
Summary of the method: (§2)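 Fitness was derived from optical density at entry into stationary phase, divided by the robust mean of the no-drug wells on the same plate. That reading was taken as OD595, and the ratio was capped at 1. Single-drug fitness was inferred from the combination data. The Bliss score, observed fitness minus the expected product of single-drug fitness, was summarised as quartiles over technical, biological and donor/recipient replicates.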

B. subtilis 168 [6] = test: as above
Summary of the method: as §2

S. aureus DSM 20231 [7] = test: as above
Summary of the method: as §2

S. pneumoniae D39V [8] = test: as above
Summary of the method: as §2
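Wherever Bliss interaction score (quartile over a dose matrix) is given: first quartile when negative (synergy) and third quartile when positive (antagonism).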

Cc1onc(-c2ccccc2)c1C(=O)N[C@@H]1C(=O)N2[C@@H]1SC(C)(C)[C@@H]2C(=O)O [Oxacillin] + COc1ccc(C[C@H](N)C(=O)N[C@H]2[C@@H](O)[C@H](n3cnc4c(N(C)C)ncnc43)O[C@@H]2CO)cc1 [Puromycin]
Conditions | fitness
B. subtilis 168 [2], first compound 0.002 µg/mL, partner 0.39 µg/mL | 0.98
B. subtilis 168 [2], first compound 0.002 µg/mL, partner 0.78 µg/mL | 0.966
B. subtilis 168 [2], first compound 0.002 µg/mL, partner 1.56 µg/mL | 0.932
B. subtilis 168 [2], first compound 0.004 µg/mL, partner 0.39 µg/mL | 0.974
B. subtilis 168 [2], first compound 0.004 µg/mL, partner 0.78 µg/mL | 0.914
B. subtilis 168 [2], first compound 0.004 µg/mL, partner 1.56 µg/mL | 0.9
B. subtilis 168 [2], first compound 0.008 µg/mL, partner 0.39 µg/mL | 0.88
B. subtilis 168 [2], first compound 0.008 µg/mL, partner 0.78 µg/mL | 0.879
B. subtilis 168 [2], first compound 0.008 µg/mL, partner 1.56 µg/mL | 0.864
S. aureus DSM 20231 [3], first compound 0.0156 µg/mL, partner 0.39 µg/mL | 0.84
S. aureus DSM 20231 [3], first compound 0.0156 µg/mL, partner 0.78 µg/mL | 0.902
S. aureus DSM 20231 [3], first compound 0.0156 µg/mL, partner 1.56 µg/mL | 0.91
S. aureus DSM 20231 [3], first compound 0.0312 µg/mL, partner 0.39 µg/mL | 0.72
S. aureus DSM 20231 [3], first compound 0.0312 µg/mL, partner 0.78 µg/mL | 0.737
S. aureus DSM 20231 [3], first compound 0.0312 µg/mL, partner 1.56 µg/mL | 0.748
S. aureus DSM 20231 [3], first compound 0.0625 µg/mL, partner 0.39 µg/mL | 0.481
S. aureus DSM 20231 [3], first compound 0.0625 µg/mL, partner 0.78 µg/mL | 0.555
S. aureus DSM 20231 [3], first compound 0.0625 µg/mL, partner 1.56 µg/mL | 0.546
S. aureus Newman [1], first compound 0.0156 µg/mL, partner 0.78 µg/mL | 0.85
S. aureus Newman [1], first compound 0.0156 µg/mL, partner 1.56 µg/mL | 0.806
S. aureus Newman [1], first compound 0.0312 µg/mL, partner 0.39 µg/mL | 0.765
S. aureus Newman [1], first compound 0.0312 µg/mL, partner 0.78 µg/mL | 0.788
S. pneumoniae D39V [4], first compound 0.01 µg/mL, partner 1 µg/mL | ≥ 1
S. pneumoniae D39V [4], first compound 0.01 µg/mL, partner 2 µg/mL | 0.969
S. pneumoniae D39V [4], first compound 0.01 µg/mL, partner 4 µg/mL | 0.918
S. pneumoniae D39V [4], first compound 0.02 µg/mL, partner 1 µg/mL | 0.984
S. pneumoniae D39V [4], first compound 0.02 µg/mL, partner 2 µg/mL | 0.949
S. pneumoniae D39V [4], first compound 0.02 µg/mL, partner 4 µg/mL | 0.863
S. pneumoniae D39V [4], first compound 0.04 µg/mL, partner 1 µg/mL | 0.668
S. pneumoniae D39V [4], first compound 0.04 µg/mL, partner 2 µg/mL | 0.644
S. pneumoniae D39V [4], first compound 0.04 µg/mL, partner 4 µg/mL | 0.281

fitness, one replicate
Conditions | first compound 0.0156 µg/mL | first compound 0.0312 µg/mL | first compound 0.0625 µg/mL | first compound 0.075 µg/mL | first compound 0.15 µg/mL | first compound 0.3 µg/mL
B. subtilis 168 [2], partner 0.39 µg/mL | – | – | – | 0.523 | 0.0695 | 0.0402
B. subtilis 168 [2], partner 0.78 µg/mL | – | – | – | 0.645 | 0.0521 | 0.0336
B. subtilis 168 [2], partner 1.56 µg/mL | – | – | – | 0.632 | 0.0547 | 0.0573
S. aureus DSM 20231 [3], partner 3.12 µg/mL | 0.887 | 0.788 | 0.66 | – | – | –
S. aureus DSM 20231 [3], partner 6.24 µg/mL | 0.609 | 0.606 | 0.548 | – | – | –

Conditions | Bliss interaction score
B. subtilis 168 [6] | 0.0568
S. aureus DSM 20231 [7] | 0.0572
S. aureus Newman [5] | 0.0763
S. pneumoniae D39V [8] | 0.167

Cc1onc(-c2ccccc2)c1C(=O)N[C@@H]1C(=O)N2[C@@H]1SC(C)(C)[C@@H]2C(=O)O [Oxacillin] + C[n+]1ccc(-c2cc[n+](C)cc2)cc1 [Paraquat]
Conditions | fitness
B. subtilis 168 [2], first compound 0.002 µg/mL, partner 1.25 µg/mL | 0.964
B. subtilis 168 [2], first compound 0.002 µg/mL, partner 2.5 µg/mL | 0.922
B. subtilis 168 [2], first compound 0.002 µg/mL, partner 5 µg/mL | 0.725
B. subtilis 168 [2], first compound 0.004 µg/mL, partner 1.25 µg/mL | 0.917
B. subtilis 168 [2], first compound 0.004 µg/mL, partner 2.5 µg/mL | 0.864
B. subtilis 168 [2], first compound 0.004 µg/mL, partner 5 µg/mL | 0.747
B. subtilis 168 [2], first compound 0.008 µg/mL, partner 1.25 µg/mL | 0.861
B. subtilis 168 [2], first compound 0.008 µg/mL, partner 2.5 µg/mL | 0.836
B. subtilis 168 [2], first compound 0.008 µg/mL, partner 5 µg/mL | 0.665
S. aureus DSM 20231 [3], first compound 0.0156 µg/mL, partner 1.25 µg/mL | 0.909
S. aureus DSM 20231 [3], first compound 0.0156 µg/mL, partner 2.5 µg/mL | 0.892
S. aureus DSM 20231 [3], first compound 0.0156 µg/mL, partner 5 µg/mL | 0.865
S. aureus DSM 20231 [3], first compound 0.0312 µg/mL, partner 1.25 µg/mL | 0.704
S. aureus DSM 20231 [3], first compound 0.0312 µg/mL, partner 2.5 µg/mL | 0.688
S. aureus DSM 20231 [3], first compound 0.0312 µg/mL, partner 5 µg/mL | 0.63
S. aureus DSM 20231 [3], first compound 0.0625 µg/mL, partner 1.25 µg/mL | 0.466
S. aureus DSM 20231 [3], first compound 0.0625 µg/mL, partner 2.5 µg/mL | 0.599
S. aureus DSM 20231 [3], first compound 0.0625 µg/mL, partner 5 µg/mL | 0.498
S. aureus Newman [1], first compound 0.0156 µg/mL, partner 1.25 µg/mL | 0.792
S. aureus Newman [1], first compound 0.0156 µg/mL, partner 2.5 µg/mL | 0.779
S. aureus Newman [1], first compound 0.0156 µg/mL, partner 5 µg/mL | 0.795
S. aureus Newman [1], first compound 0.0312 µg/mL, partner 2.5 µg/mL | 0.688
S. aureus Newman [1], first compound 0.0312 µg/mL, partner 5 µg/mL | 0.687
S. aureus Newman [1], first compound 0.0625 µg/mL, partner 2.5 µg/mL | 0.604
S. aureus Newman [1], first compound 0.0625 µg/mL, partner 5 µg/mL | 0.587
S. pneumoniae D39V [4], first compound 0.01 µg/mL, partner 1.5 µg/mL | 0.986
S. pneumoniae D39V [4], first compound 0.01 µg/mL, partner 3 µg/mL | 0.986
S. pneumoniae D39V [4], first compound 0.01 µg/mL, partner 6 µg/mL | 0.96
S. pneumoniae D39V [4], first compound 0.02 µg/mL, partner 1.5 µg/mL | 0.939
S. pneumoniae D39V [4], first compound 0.02 µg/mL, partner 3 µg/mL | 0.961
S. pneumoniae D39V [4], first compound 0.02 µg/mL, partner 6 µg/mL | 0.928
S. pneumoniae D39V [4], first compound 0.04 µg/mL, partner 3 µg/mL | 0.538
S. pneumoniae D39V [4], first compound 0.04 µg/mL, partner 6 µg/mL | 0.483

fitness, B. subtilis 168 [2], one replicate
Conditions | first compound 0.075 µg/mL | first compound 0.15 µg/mL | first compound 0.3 µg/mL
partner 1.25 µg/mL | 0.512 | 0.0497 | 0.0541
partner 2.5 µg/mL | 0.326 | 0.054 | 0.0573
partner 5 µg/mL | 0.0786 | 0.0366 | 0.0407

Conditions | Bliss interaction score
B. subtilis 168 [6] | -0.0872
S. aureus DSM 20231 [7] | -0.0577
S. aureus Newman [5] | -0.0522
S. pneumoniae D39V [8] | 0.0963
